Measurements taken from US20260092086A1, “ANTIMICROBIAL LASSO PEPTIDES” (priority 2022, published 2026).
≈ marks a conversion by molar mass, not a printed value. Where a SMILES comes first, the peptide text is derived from it.

Tests used:
[1] = Heating assay at 95° C., LC-MS; assay type: physicochemical; details: 1.5 hours
Protocol: The threaded nature of the collected cloacaenodin sample was next sought to be verified, because the threaded structure is crucial to the bioactivity of lasso peptides.^50 Heat treatment of certain lasso peptides leads to their unthreading: the unthreaded species often elutes differently than the threaded peptide.^48,49 We performed a heating assay at 95° C. and noticed that after 1.5 hours ˜5% of cloacaenodin eluted at around 12.4 min instead of 10.5 min (FIGS. 7A-7B). Upon treatment with carboxypeptidase^48,49, this later eluting peak was eliminated, and various earlier-eluting peaks consistent with C-terminal truncations of 6, 9, or 10 amino acids were then observed. These truncations were not observed for the unheated cloacaenodin sample when treated with carboxypeptidase (FIGS. 7A-8B). […] This unthreaded variant in the extract may have formed because of thermal unthreading during expression and purification, exposure to organic solvents during purification, or both. To ensure that the sample we collected from the HPLC remained stable, we froze the sample immediately upon collection until lyophilization, such that the peptide was minimally kept in solution.

α-chymotrypsin = target: T1, α-chymotrypsin (Bos taurus, UniProt P00766, DEL14-15/DEL147-148); assay: Protease digestion, chymotrypsin; assay type: in vitro ADME, bovine; details: 50 μM peptide, 25° C., about 1 hour, LC-MS
T1 construct: purchased Sigma-Aldrich; host or cells: bovine pancreas
Protocol: α-chymotrypsin from bovine pancreas (Sigma-Aldrich) was first resuspended in 1 mM HCl, 2 mM CaCl2). The enzyme was added to 50 μM peptide samples at a final enzyme concentration of about 0.04 mg/mL in a buffer of 100 mM tris(hydroxymethyl)aminomethane (Tris), 10 mM CaCl2, pH 8. The reactions were then allowed to incubate at 25° C. for about 1 hour before quenching with 1% formic acid, and an aliquot was injected onto LC-MS for analysis.

[2] = test system: Enterobacter ludwigii MGH216; assay type: cell-based
[3] = test system: Enterobacter mori DSM 26271; assay type: cell-based
Protocol: (§1) Cloacaenodin was evaluated against several common laboratory strains as well as commercially acquired strains using a spot-on-lawn assay.^45 Strains were streaked out onto LB agar plates and incubated overnight at their recommended temperatures. A single colony was then used to inoculate an overnight culture in 5 mL of LB broth. After shaking at 250 rpm at the recommended temperature for each strain, 50 μL of the overnight culture was used to inoculate 5 mL of LB broth (volume ratio 1:100). These cultures were grown for a few hours until they reached the exponential phase (OD600˜0.4-0.6) before being added to 10 mL of soft M63 agar at a final cell density of 10^7 CFUs/mL, or 10^8 CFUs total in 10 mL. The M63 soft agar was composed of 2 g/L of (NH4)2SO4 (EMD MilliporeSigma), 13.6 g/L of KH2PO4 (Fisher), 40 mg/L of each of the 20 common amino acids, 0.2% glucose (Sigma), 0.00005% w/v thiamine hydrochloride (Sigma), and 0.65% w/v bacteriological-grade agar (Apex Bioresearch). […] Upon solidification, 10 μL of purified cloacaenodin in water at two-fold dilutions were then spotted onto the agar and allowed to dry. The plates were incubated overnight at the strains' recommended temperatures and analyzed the next morning for activity. The MIC is defined as the last dilution where a spot was visible.

[4] = test system: Enterobacter cloacae ATCC 13047; assay type: cell-based
Protocol: as §1

[5] = test system: Enterobacter asburiae DSM 17506; assay type: cell-based
Protocol: as §1

[6] = test system: Enterobacter amnigenus ATCC 33072; assay type: cell-based
Protocol: as §1

[7] = test system: Enterobacter nimipressuralis DSM 18955; assay type: cell-based
[8] = spot-on-lawn, M63 agar, purified cloacaenodin in water

## CC[C@H](C)[C@@H]1NC(=O)[C@H](CCCNC(=N)N)NC(=O)[C@H](CC(=O)O)NC(=O)[C@H](C(C)C)NC(=O)[C@H](CO)NC(=O)[C@H](Cc2c[nH]cn2)NC(=O)CNC(=O)CC[C@@H](C(=O)N[C@@H](Cc2ccc(O)cc2)C(=O)N[C@@H](Cc2ccccc2)C(=O)NCC(=O)N2CCC[C@H]2C(=O)N2CCC[C@H]2C(=O)NCC(=O)N[C@@H](CC(C)C)C(=O)N2CCC[C@H]2C(=O)NCC(=O)N2CCC[C@H]2C(=O)N[C@H](C(=O)N[C@@H](CC(C)C)C(=O)N[C@@H](Cc2ccccc2)C(=O)N[C@@H](Cc2ccc(O)cc2)C(=O)N[C@@H](CO)C(=O)O)C(C)C)NC(=O)[C@@H]2CCCN2C1=O [cloacaenodin] (HELM PEPTIDE1{G.H.S.V.D.R.I.P.E.Y.F.G.P.P.G.L.P.G.P.V.L.F.Y.S}$PEPTIDE1,PEPTIDE1,1:R1-9:R3$$$V2.0; C-terminus assumed)
[1]
  fraction eluting as later (unthreaded) peak after heating: ~5%
α-chymotrypsin; listed as Threaded cloacaenodin
  proteolysis by chymotrypsin: resistant to chymotrypsin digestion
α-chymotrypsin; listed as threaded cloacaenodin
  proteolysis by chymotrypsin: remained resistant to proteolysis
[2]
  MIC in M63 media: 0.23 µM (≈ 0.594 µg/mL)
[3]; DSM 26271
  MIC in M63 media: 3.8 µM (≈ 9.82 µg/mL)
[3]; Enterobacter mori DSM 26271
  strain susceptible to cloacaenodin: * Enterobacter mori
[3]; [8]
  antimicrobial activity (zones of inhibition): zones of inhibition in the low micromolar range
[4]; ATCC 13047
  MIC in M63 media: 7.5 µM (≈ 19.4 µg/mL)
[4]; Enterobacter cloacae subsp. cloacae ATCC 13047
  strain susceptible to cloacaenodin: * Enterobacter cloacae subsp. cloacae
[4]; peptide at a concentration of 15 μM, listed as threaded cloacaenodin
  activity against Enterobacter cloacae: has activity
[4]; [8]
  antimicrobial activity (zones of inhibition): zones of inhibition in the low micromolar range
[5]; DSM 17506
  MIC in M63 media: 1.9 µM (≈ 4.91 µg/mL)
[5]; [8]
  antimicrobial activity (zones of inhibition): zones of inhibition in the low micromolar range
[6]; ATCC 33072
  MIC in M63 media: 1.9 µM (≈ 4.91 µg/mL)
[6]; Enterobacter amnigenus ATCC 33072
  strain susceptible to cloacaenodin: * Enterobacter amnigenus
[6]; [8]
  antimicrobial activity (zones of inhibition): zones of inhibition in the low micromolar range
[7]
  MIC in M63 media: 0.94 µM (≈ 2.43 µg/mL)
